Patent US11053204B2, “Pyrimidinyloxy benzene derivatives as herbicides” (FMC Corporation, priority 2015, dated 2021)

Assays:
Assay type in all cases: in vivo
[1] = test system: ducksalad (Heteranthera limosa); assay: Test B flooded paddy test, plant response rating; conditions: 250 g ai/ha; Flood; scale of 0 to 100 where 0 is no effect and 100 is complete control; 13 to 15 days
Procedure, shortened: (§1)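 Ratings were visual and made relative to untreated controls after 13 to 15 greenhouse days.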

[2] = test system: barnyardgrass (Echinochloa crus-galli); assay: Test B flooded paddy test, plant response rating; conditions: 250 g ai/ha; Flood; scale of 0 to 100 where 0 is no effect and 100 is complete control; 13 to 15 days
Procedure, shortened: as §1

[3] = test system: sedge, umbrella (small-flower umbrella sedge, Cyperus difformis); assay: Test B flooded paddy test, plant response rating; conditions: 250 g ai/ha; Flood; scale of 0 to 100 where 0 is no effect and 100 is complete control; 13 to 15 days
Procedure, shortened: as §1

rice (Oryza sativa) = assay: Test B flooded paddy test, plant response rating; conditions: 250 g ai/ha; Flood; scale of 0 to 100 where 0 is no effect and 100 is complete control; 13 to 15 days
Procedure, shortened: as §1

[4] = test system: wheat (Triticum aestivum); assay: Test A postemergence, visual injury rating
Procedure, shortened: (§2)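 Greenhouse pot test, loam/sand soil. Formulation: non-phytotoxic solvent mix plus surfactant. Pre: directed spray onto soil after sowing. Post: plants at 1–2 leaf, 2–10 cm. Rated visually vs untreated controls at ~10 d, 0 (no effect) to 100 (complete control).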

[5] = test system: pigweed (Amaranthus retroflexus); assay: Test A postemergence, visual injury rating
Procedure, shortened: as §2

[6] = test system: galium (catchweed bedstraw, Galium aparine); assay: Test A postemergence, visual injury rating
Procedure, shortened: as §2

[7] = test system: Italian ryegrass (Lolium multiflorum); assay: Test A postemergence, visual injury rating
Procedure, shortened: as §2

[8] = test system: ragweed (common ragweed, Ambrosia elatior); assay: Test A postemergence, visual injury rating
Procedure, shortened: as §2

kochia (Kochia scoparia) [9] = assay: Test A postemergence, visual injury rating
Procedure, shortened: as §2

[10] = test system: blackgrass (Alopecurus myosuroides); assay: Test A postemergence, visual injury rating
Procedure, shortened: as §2

[11] = test system: barnyardgrass (Echinochloa crus-galli); assay: Test A postemergence, visual injury rating; conditions: 0 to 100 scale, 0 is no effect, 100 is complete control, approximately 10 days
Procedure, shortened: as §2

[12] = test system: giant foxtail (Setaria faberii); assay: Test A postemergence, visual injury rating
Procedure, shortened: as §2

corn (Zea mays) = assay: Test A postemergence, visual injury rating
Procedure, shortened: as §2

[13] = test system: pigweed (Amaranthus retroflexus); assay: Test A preemergence, visual injury rating
Procedure, shortened: as §2

[14] = test system: Italian ryegrass (Lolium multiflorum); assay: Test A preemergence, visual injury rating
Procedure, shortened: as §2

[15] = test system: ragweed (common ragweed, Ambrosia elatior); assay: Test A preemergence, visual injury rating
Procedure, shortened: as §2

kochia (Kochia scoparia) [16] = assay: Test A preemergence, visual injury rating
Procedure, shortened: as §2

[17] = test system: barnyardgrass (Echinochloa crus-galli); assay: Test A preemergence, visual injury rating
Procedure, shortened: as §2

[18] = test system: giant foxtail (Setaria faberii); assay: Test A preemergence, visual injury rating
Procedure, shortened: as §2

[19] = 31 g ai/ha, 0 to 100 scale (0 no effect, 100 complete control)
[20] = 125 g ai/ha, 0 to 100 scale, 0 is no effect, 100 is complete control, approximately 10 days
[21] = 31 g ai/ha, 0 to 100 scale, 0 no effect, 100 complete control
[22] = 125 g ai/ha, 0 to 100 scale (0 no effect, 100 complete control)

N#Cc1cccc(Oc2ncc(Cl)cn2)c1COCC(F)(F)F [Compound 131]
15: Plant response rating, Barnyardgrass [2] | Plant response rating, Rice (rice (Oryza sativa))
50: Pigweed plant response rating [5, 19] | Galium plant response rating [6, 20]
40: Kochia plant response rating (kochia (Kochia scoparia) [9]; [19])
0: Wheat plant response rating [4, 19] | Ryegrass, Italian plant response rating [7, 19] | Ragweed plant response rating [8, 19] | Ragweed plant response rating [8, 20] | Blackgrass plant response rating [10, 19] | Blackgrass plant response rating [10, 20] | Barnyardgrass plant response rating ([11]; 31 g ai/ha) | Foxtail, Giant plant response rating [12, 19] | Plant response rating, Ryegrass, Italian [14, 21] | Plant response rating, Ragweed [15, 21] | Plant response rating, Ragweed [15, 22] | Plant response rating, Barnyardgrass [17, 21] | Plant response rating, Foxtail, Giant [18, 21]
30: Corn plant response rating (corn (Zea mays); [20])
20: Wheat plant response rating [4, 20] | Galium plant response rating [6, 19] | Ryegrass, Italian plant response rating [7, 20] | Foxtail, Giant plant response rating [12, 20] | Corn plant response rating (corn (Zea mays); [19]) | Plant response rating, Ryegrass, Italian [14, 22]
90: Plant response rating, Sedge, Umbrella [3] | Kochia plant response rating (kochia (Kochia scoparia) [9]; [20]) | Plant response rating, Pigweed [13, 21] | Plant response rating, Foxtail, Giant [18, 22]
10: Barnyardgrass plant response rating ([11]; 125 g ai/ha) | Plant response rating, Kochia (kochia (Kochia scoparia) [16]; [21])
100: Plant response rating, Pigweed [13, 22] | Plant response rating, Kochia (kochia (Kochia scoparia) [16]; [22]) | Plant response rating, Barnyardgrass [17, 22]
80: Plant response rating, Ducksalad [1] | Pigweed plant response rating [5, 20]
